Assay results as given in patent US10676504B2 (Colorado State University Research Foundation, priority 2015, dated 2020).
pIC50: −log10 of the molar value. Read-outs that look alike come from different tables or passages of the source.

Tests used:
[1] = test system: human HDACs; assay: HDAC biochemical assay (Example 16), summary statements over isoforms; details: all isoforms tested
Description: The inhibitory effect of compounds on deacetylase isoenzyme function was determined in vitro using an optimized homogenous assay performed in 384-well plate format. […] Data are analyzed on a plate-by-plate basis for the linear range of fluorescence over time. Data from the plate capture corresponding to the mid-linear range is imported into analytical software and annotated with well identity and compound concentration (Spotfire DecisionSite). Replicate experimental data from incubations with inhibitor are normalized to control, solvent-only wells and IC-50 is determined by logistic regression.
Thus, small-molecule inhibitors were arrayed at twelve-point dose-response (3-fold increments) in 384-well library plates and transferred by robotic pin device to replicate assay plates containing assay buffer under reducing conditions (TCEP 200 μM). A liquid handling device then transferred a tripeptide substrate terminating in acetyl-lysine and amide conjugated to 4-methyl-7-aminocoumarin (AMC), recombinant human histone deacetylase (BPS Bioscience, San Diego, Calif.), and recombinant human trypsin (Sigma-Aldrich, St. Louis, Mo.). […] Kinetic (fluorescence per unit time) and end-point (total fluorescence) data were captured by a multilabel plate reader. Replicate data were analyzed by curve-fit using logistic regression (Spotfire Decision-Site). […]

[2] = the molecule shown is the open-chain precursor, amide bond, 16-membered ring, 3 steps
[3] = test system: CNS cancer cell lines; details: for Percent of Cell Lines Impacted (%), LC50, CNS: five-dose
Description: (§1) All compounds submitted for screening were initially tested at a single high dose (10^-5 M) against the fill NCI 60 cell panel. Only compounds which satisfied pre-determined threshold inhibition criteria in a minimum number of cell lines progressed to a second round of testing utilizing a more comprehensive 5-dose inhibition assay. The threshold inhibition criteria for progression to the 5-dose assays were selected to efficiently capture compounds with anti-proliferative activity based on historical DTP screening data.
(§2) Concentrations for G150, IC50, TGI, and LC50 were calculated for all cell lines tested, and heat plots were prepared.

[4] = test system: melanoma cell lines; assay: cells; details: read-out: Average Concentration (M), LC50, Melanoma
[5] = test system: melanoma cell lines; details: for Percent of Cell Lines Impacted (%), LC50, Melanoma: five-dose
[6] = test system: NCI-60 cancer cell lines; assay: cells
Description: as §1, §2

[7] = test system: renal cancer cell lines; details: for Percent of Cell Lines Impacted (%), LC50, Renal: five-dose
Description: as §1, §2

[8] = test system: CNS cancer cell lines; assay: cells; details: read-out: Average Concentration (M), LC50, CNS
Description: as §1, §2

[9] = test system: colon cancer cell lines; assay: cells; details: read-out: Average Concentration (M), LC50, Colon
Description: as §1, §2

[10] = test system: NCI-60 cancer cell lines; details: five-dose; for Percent of Cell Lines Impacted (%), GI50: 50% Growth Inhibition; for Percent of Cell Lines Impacted (%), LC50: 50% Lethal Concentration reached; for Percent of Cell Lines Impacted (%), TGI / Total Impacted Cell Lines (n), TGI: Total Growth Inhibition; for Average Concentration (M), TGI: average over impacted cell lines
Description: as §1, §2

[11] = test system: colon cancer cell lines; details: for Percent of Cell Lines Impacted (%), LC50, Colon: five-dose
Description: as §1, §2

[12] = test system: ovarian cancer cell lines
Description: as §1, §2

[13] = target: T1, HDAC3 (Homo sapiens, UniProt O15379); assay: HDAC biochemical assay of P5-P12 (Table P1); details: Table P1
T1 construct: The recombinant, full-length HDAC protein (BPS Biosciences) was incubated; purchased BPS Biosciences

[14] = target: HDAC1 (Homo sapiens, UniProt Q13547); assay: HDAC biochemical assay of P5-P12 (Table P1); design: The recombinant, full-length HDAC protein (BPS Biosciences) was incubated; purchased BPS Biosciences; details: Table P1
[15] = target: T2, HDAC6 (Homo sapiens, UniProt Q9UBN7); assay: HDAC biochemical assay of P5-P12 (Table P1); design: The recombinant, full-length HDAC protein (BPS Biosciences) was incubated; purchased BPS Biosciences; details: 200 μM TCEP
T2 sequence (Q9UBN7 1-1215): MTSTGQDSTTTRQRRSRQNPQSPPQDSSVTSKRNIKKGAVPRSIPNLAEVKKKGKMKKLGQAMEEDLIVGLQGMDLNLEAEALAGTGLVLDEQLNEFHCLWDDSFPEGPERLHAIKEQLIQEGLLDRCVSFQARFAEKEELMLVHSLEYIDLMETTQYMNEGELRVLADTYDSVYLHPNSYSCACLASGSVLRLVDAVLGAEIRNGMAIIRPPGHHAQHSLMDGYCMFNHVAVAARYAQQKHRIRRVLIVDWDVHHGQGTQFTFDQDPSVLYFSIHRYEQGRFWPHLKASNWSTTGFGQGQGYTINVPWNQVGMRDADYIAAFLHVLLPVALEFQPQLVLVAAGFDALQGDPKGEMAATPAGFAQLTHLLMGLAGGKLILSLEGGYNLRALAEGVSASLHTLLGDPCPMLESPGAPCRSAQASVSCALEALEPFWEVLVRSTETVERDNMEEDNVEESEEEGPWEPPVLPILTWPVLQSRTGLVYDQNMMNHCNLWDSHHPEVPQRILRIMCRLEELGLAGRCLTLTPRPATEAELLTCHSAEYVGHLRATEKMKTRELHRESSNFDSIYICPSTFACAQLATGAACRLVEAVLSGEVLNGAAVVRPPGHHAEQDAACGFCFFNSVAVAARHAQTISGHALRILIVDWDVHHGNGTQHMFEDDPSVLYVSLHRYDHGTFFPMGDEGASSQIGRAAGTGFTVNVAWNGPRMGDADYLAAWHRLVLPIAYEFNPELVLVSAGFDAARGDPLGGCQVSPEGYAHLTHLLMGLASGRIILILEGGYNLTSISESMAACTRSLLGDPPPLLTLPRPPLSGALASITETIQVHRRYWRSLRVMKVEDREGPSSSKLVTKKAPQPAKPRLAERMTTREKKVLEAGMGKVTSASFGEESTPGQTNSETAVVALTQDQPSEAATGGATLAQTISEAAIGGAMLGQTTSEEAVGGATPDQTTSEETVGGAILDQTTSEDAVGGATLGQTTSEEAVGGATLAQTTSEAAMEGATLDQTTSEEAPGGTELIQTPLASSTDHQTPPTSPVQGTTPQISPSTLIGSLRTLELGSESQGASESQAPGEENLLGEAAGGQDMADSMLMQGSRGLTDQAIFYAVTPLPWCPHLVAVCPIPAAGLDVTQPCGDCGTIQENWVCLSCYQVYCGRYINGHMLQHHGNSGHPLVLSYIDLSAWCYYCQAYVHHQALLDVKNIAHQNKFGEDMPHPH

[16] = target: T3, HDAC8 (Homo sapiens, UniProt Q9BY41); assay: HDAC biochemical assay of P5-P12 (Table P1); design: The recombinant, full-length HDAC protein (BPS Biosciences) was incubated; purchased BPS Biosciences; details: Table P1
T3 sequence (Q9BY41 1-377): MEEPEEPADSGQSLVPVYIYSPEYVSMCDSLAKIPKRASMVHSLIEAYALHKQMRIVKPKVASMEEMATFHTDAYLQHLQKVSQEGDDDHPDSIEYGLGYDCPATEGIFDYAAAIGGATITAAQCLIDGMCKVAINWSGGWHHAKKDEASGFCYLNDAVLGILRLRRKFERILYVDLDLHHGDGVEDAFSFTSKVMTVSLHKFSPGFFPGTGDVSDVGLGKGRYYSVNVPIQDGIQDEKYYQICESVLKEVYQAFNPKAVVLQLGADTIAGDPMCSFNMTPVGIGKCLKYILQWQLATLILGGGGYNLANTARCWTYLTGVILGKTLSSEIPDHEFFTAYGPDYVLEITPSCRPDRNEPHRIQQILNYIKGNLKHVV

[17] = target: HDAC2 (Homo sapiens, UniProt Q92769); assay: HDAC biochemical assay of P5-P12 (Table P1); design: The recombinant, full-length HDAC protein (BPS Biosciences) was incubated; purchased BPS Biosciences; details: Table P1
[18] = test system: HDACs 1-3; assay: HDAC biochemical assay of P5-P12, summary statements
[19] = test system: 797 NUT midline carcinoma cell line; assay: 797 cell viability (ATPLite); assay type: cell-based; details: Table P2; 48 hours incubation
Description: (§3) Addition of compound was performed with a JANUS Workstation (PerkinElmer Life and Analytical Sciences) using a 384-well pinhead tool that is calibrated to deliver 100 nL drug/well. After 48 hours of incubation with compound, cells were analyzed for cell viability using the ATPLite (Perkin Elmer) luminescent assay kit per the manufacturer's instructions. […] Replicate measurements were analyzed with respect to dose and estimates of IC50 were calculated by logistic regression (GraphPad Prism).

[20] = test system: 10326 NUT midline carcinoma cell line; assay: 10326 cell viability (ATPLite); assay type: cell-based; details: Table P2; 48 hours incubation
Description: as §3

[21] = read-out: Average Concentration (M), GI50

T1 sequence (O15379 whole entry): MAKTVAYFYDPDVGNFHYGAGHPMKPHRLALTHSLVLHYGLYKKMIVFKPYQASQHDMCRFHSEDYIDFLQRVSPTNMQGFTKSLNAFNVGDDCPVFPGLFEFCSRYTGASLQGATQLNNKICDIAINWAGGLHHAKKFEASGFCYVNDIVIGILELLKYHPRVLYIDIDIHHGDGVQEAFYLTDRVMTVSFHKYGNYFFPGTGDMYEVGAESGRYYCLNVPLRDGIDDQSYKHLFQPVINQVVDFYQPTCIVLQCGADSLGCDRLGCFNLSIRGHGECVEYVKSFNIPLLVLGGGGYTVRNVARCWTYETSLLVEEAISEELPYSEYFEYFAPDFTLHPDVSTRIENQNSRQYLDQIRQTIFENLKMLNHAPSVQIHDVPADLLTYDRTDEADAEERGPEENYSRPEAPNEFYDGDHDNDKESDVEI
T1 sequence (Q9Y618 395-489 partner limits assumed): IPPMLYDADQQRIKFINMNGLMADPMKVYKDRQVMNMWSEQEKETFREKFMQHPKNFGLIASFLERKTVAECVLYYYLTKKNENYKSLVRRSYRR
HDAC1, sequence (Q13547 whole entry): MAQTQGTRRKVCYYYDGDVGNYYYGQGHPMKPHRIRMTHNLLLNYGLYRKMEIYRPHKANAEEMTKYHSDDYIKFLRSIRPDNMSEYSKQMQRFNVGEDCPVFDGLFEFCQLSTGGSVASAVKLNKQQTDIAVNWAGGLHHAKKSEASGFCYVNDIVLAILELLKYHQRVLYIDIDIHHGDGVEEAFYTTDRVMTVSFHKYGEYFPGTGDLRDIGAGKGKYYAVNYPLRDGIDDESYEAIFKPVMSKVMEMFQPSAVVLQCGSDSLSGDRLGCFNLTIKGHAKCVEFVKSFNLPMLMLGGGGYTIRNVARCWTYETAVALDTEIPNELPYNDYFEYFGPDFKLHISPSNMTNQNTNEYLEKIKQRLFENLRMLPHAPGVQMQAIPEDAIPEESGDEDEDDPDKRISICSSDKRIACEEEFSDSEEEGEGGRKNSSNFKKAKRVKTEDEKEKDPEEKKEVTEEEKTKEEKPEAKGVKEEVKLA
HDAC2, sequence (Q92769 whole entry): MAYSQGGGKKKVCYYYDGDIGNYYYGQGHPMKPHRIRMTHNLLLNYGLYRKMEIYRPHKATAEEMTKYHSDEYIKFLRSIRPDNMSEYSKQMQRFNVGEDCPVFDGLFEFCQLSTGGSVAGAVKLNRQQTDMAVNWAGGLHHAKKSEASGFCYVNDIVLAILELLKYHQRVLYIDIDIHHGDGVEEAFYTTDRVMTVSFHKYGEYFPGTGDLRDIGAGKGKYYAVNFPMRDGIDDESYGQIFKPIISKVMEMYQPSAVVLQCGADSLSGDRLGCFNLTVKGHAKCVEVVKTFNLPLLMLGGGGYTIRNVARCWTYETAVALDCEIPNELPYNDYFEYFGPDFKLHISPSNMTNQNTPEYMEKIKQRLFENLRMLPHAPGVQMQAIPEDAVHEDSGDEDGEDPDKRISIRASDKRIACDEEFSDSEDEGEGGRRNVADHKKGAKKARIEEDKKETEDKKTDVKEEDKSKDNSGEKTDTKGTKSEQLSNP

With `CC(C)[C@H]1NC(=O)[C@@]2(C)CSC(=N2)c2csc(n2)CNC(=O)C[C@H](/C=C/CCS)OC1=O` [Enantiomer (2), (−)-Largazole Thiol] the “decrease in potency versus the natural product” value [1] was “three orders of magnitude”.
`COC(=O)C[C@@H](/C=C/CCSC(c1ccccc1)(c1ccccc1)c1ccccc1)NC(=O)[C@@H](NC(=O)[C@]1(C)CSC(c2ccnc(CNC(=O)OC(C)(C)C)c2)=N1)C(C)C` [Trityl Protected Peptide Isostere Pyridyl “OUT” Macrocycle] showed a ring closure, isolated yield ([2]; HATU/HOBt/DIEA, MeCN, 0.97 mM, […]) of 32%.
Compound `COC(=O)C[C@@H](/C=C/CCSC(c1ccccc1)(c1ccccc1)c1ccccc1)NC(=O)[C@@H](NC(=O)[C@]1(C)CSC(c2cccc(CNC(=O)OC(C)(C)C)n2)=N1)C(C)C` [Trityl Protected Peptide Isostere Pyridyl “IN” Macrocycle] has a ring closure, isolated yield [2] of 33%.
For `CCCCCCCC(=O)SCC/C=C/[C@@H]1CC(=O)NCc2nc(cs2)C2=N[C@@](C)(CS2)C(=O)N[C@@H](C(C)C)C(=O)N1` [compound of formula aa], the “Total Impacted Cell Lines (n), LC50, CNS” value [3] was 2, the “Percent of Cell Lines Impacted (%), LC50, CNS” value [3] was 33% and the CC50 [4] was 6.52e-06 M. For the same compound, the “Total Impacted Cell Lines (n), LC50, Melanoma” value [5] was 2, the “Percent of Cell Lines Impacted (%), LC50, Melanoma” value [5] was 25% and the GI50 [6, 21] was 6.56e-07 M. For the same compound, the “Total Impacted Cell Lines (n), LC50, Renal” value [7] was 2, the “Percent of Cell Lines Impacted (%), LC50, Renal” value [7] was 25% and the CC50 [8] was 7.17e-06 M. The CC50 [9] was 9.45e-06 M, the “Percent of Cell Lines Impacted (%), GI50” value [10] was 100% and the “Percent of Cell Lines Impacted (%), LC50” value [10] was 17%. For the same compound, the “Percent of Cell Lines Impacted (%), TGI” value [10] was 64%, the “Total Impacted Cell Lines (n), TGI” value [10] was 37 and the “Average Concentration (M), TGI” value [10] was 1.31e-05 M. For the same compound, the “Total Impacted Cell Lines (n), LC50, Colon” value [11] was 3, the “Percent of Cell Lines Impacted (%), LC50, Colon” value [11] was 43% and the “Total Impacted Cell Lines (n), LC50, Ovarian” value [12] was 1. For the same compound, the “Percent of Cell Lines Impacted (%), LC50, Ovarian” value ([12]; five-dose) was 14%.
`CC(C)[C@@H]1NC(=O)[C@]2(C)CSC(=N2)c2ccnc(c2)CNC(=O)C[C@@H](/C=C/CCS)NC1=O` [Compound P12, Peptide Isostere Pyridyl “OUT” Thiol] showed a pIC50 [13] of 7.84, a pIC50 [14] of 7.88 and a pIC50 [15] of 5.55. For the same compound, the pIC50 [16] was 5.83, the pIC50 [17] was 7.68 and the “IC50 range in words for HDACs 1-3” value [18] was “double-digit nM range”.
In the case of `CCCCCCCC(=O)SCC/C=C/[C@@H]1CC(=O)NCc2cc(ccn2)C2=N[C@@](C)(CS2)C(=O)N[C@@H](C(C)C)C(=O)O1` [compound of formula A], the “Total Impacted Cell Lines (n), LC50, CNS” value [3] was 1, the “Percent of Cell Lines Impacted (%), LC50, CNS” value [3] was 20% and the CC50 [4] was 2.02e-07 M. For the same compound, the “Total Impacted Cell Lines (n), LC50, Melanoma” value [5] was 3, the “Percent of Cell Lines Impacted (%), LC50, Melanoma” value [5] was 38% and the GI50 [6, 21] was 3.29e-08 M. The GI50 ([6]; read-out: GI50 concentrations (M), order of magnitude) was 1e-08 M, the “Total Impacted Cell Lines (n), LC50, Renal” value [7] was 2 and the “Percent of Cell Lines Impacted (%), LC50, Renal” value [7] was 25%. The CC50 [8] was 1.38e-05 M, the CC50 [9] was 1.48e-06 M and the “Percent of Cell Lines Impacted (%), GI50” value [10] was 100%. The “Percent of Cell Lines Impacted (%), LC50” value [10] was 16%, the “Percent of Cell Lines Impacted (%), TGI” value [10] was 56% and the “Total Impacted Cell Lines (n), TGI” value [10] was 32. The “Average Concentration (M), TGI” value [10] was 8.49e-07 M, the “Total Impacted Cell Lines (n), LC50, Colon” value [11] was 3 and the “Percent of Cell Lines Impacted (%), LC50, Colon” value [11] was 43%.
`CC(C)[C@@H]1NC(=O)[C@]2(C)CSC(=N2)c2ccnc(c2)CNC(=O)C[C@@H](/C=C/CCS)OC1=O` [Compound P8, Depsipeptide Pyridyl “OUT” Thiol] showed a pIC50 [19] of 7.05, a pIC50 [13] of 8.64 and a pIC50 [14] of 8.66. The pIC50 [15] was 7.45, the pIC50 [16] was 6.99 and the pIC50 [20] was 6.92. The pIC50 [17] was 8.35 and the “IC50 range in words for HDACs 1-3” value [18] was “single digit nM range”.
Work on `CC(C)[C@@H]1NC(=O)[C@]2(C)CSC(=N2)c2cccc(n2)CNC(=O)C[C@@H](/C=C/CCS)OC1=O` [Compound P6, Depsipeptide Pyridyl “IN” Thiol] yielded a pIC50 [19] of 6.66, a pIC50 [13] of 8.51 and a pIC50 [15] of 7.31. The pIC50 [16] was 6.47, the pIC50 [20] was 6.54 and the “IC50 range in words for HDACs 1-3” value [18] was “single digit nM range”.
Work on `CC(C)[C@@H]1NC(=O)[C@]2(C)CSC(=N2)c2csc(n2)CNC(=O)C[C@@H](/C=C/CCS)NC1=O` [Largazole peptide isostere thiol] yielded a pIC50 [19] of 5.76, a pIC50 [16] of 6.59 and a pIC50 [20] of 4.92.
